Assay results published in patent US6696454B2, “Inhibitors of spermidine synthase for the treatment of osteoarthritis and cartilage rehabilitation” (Quark Biotech, Inc., priority 2000, dated 2004).

Key:
[1] = test system: spermidine synthase; conditions: cited from earlier work
[2] = molecular target: T1, spermidine synthase (Homo sapiens, UniProt P19623); conditions: variety of mammalian cells exposed to racemic AdoDATO; cited from earlier work
T1 construct: host or cells: a variety of mammalian cells (endogenous enzyme)
T1 sequence (P19623 1-302): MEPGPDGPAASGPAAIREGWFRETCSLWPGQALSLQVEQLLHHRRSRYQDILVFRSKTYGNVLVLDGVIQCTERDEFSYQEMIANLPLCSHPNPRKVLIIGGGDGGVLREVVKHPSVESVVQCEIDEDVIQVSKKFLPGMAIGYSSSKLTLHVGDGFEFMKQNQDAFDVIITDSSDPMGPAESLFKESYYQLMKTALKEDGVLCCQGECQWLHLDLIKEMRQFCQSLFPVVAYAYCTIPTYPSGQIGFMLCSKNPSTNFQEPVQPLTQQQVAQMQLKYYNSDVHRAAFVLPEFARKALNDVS

[3] = test system: cell proliferation; conditions: cell culture; cited from earlier work
[4] = test system: spermidine synthase; conditions: neonatal rats, cited from earlier work
[5] = test system: mouse alveolar macrophages; conditions: cited from earlier work; for fusion of macrophages: 1α,25(OH)2D3-induced; for enhanced synthesis of proteins induced by 1α,25(OH)2D3: 9 of the 14 induced proteins
[6] = test system: proteoglycan subunits bound to type II collagen; conditions: Sepharose 4B-collagen column loaded with proteoglycan subunits; cited from earlier work
[7] = molecular target: T2, alkaline phosphatase (Homo sapiens, UniProt P05186); conditions: cited from earlier work
T2 construct: alkaline phosphatase produced from cartilage
T2 sequence (P05186 18-501): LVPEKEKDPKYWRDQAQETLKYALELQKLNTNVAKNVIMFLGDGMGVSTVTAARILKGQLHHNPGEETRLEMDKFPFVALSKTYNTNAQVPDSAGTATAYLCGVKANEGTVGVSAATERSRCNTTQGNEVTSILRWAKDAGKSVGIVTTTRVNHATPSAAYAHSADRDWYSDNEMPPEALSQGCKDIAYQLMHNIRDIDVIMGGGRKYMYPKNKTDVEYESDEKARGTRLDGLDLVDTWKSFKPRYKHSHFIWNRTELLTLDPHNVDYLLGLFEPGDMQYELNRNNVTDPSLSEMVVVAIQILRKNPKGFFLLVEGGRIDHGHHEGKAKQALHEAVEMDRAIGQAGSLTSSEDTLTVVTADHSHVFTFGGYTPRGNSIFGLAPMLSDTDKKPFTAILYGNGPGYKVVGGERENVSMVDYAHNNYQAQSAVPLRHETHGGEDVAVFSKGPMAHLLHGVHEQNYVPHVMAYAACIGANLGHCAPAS

[8] = test system: HMSC; experiment: Differentiation marker expression in HMSC treated with cytokines/growth factors; assay type: cell-based, human
Experimental: 1.1. HMSC—Normal adult articular cartilage progenitor cells were obtained from human cartilage. The cartilage was dissected and cultured in fresh DMEM medium supplemented with 10% FCS, L-glutamine and antibiotics. Two weeks after the cultivation of dissected cartilage, the remaining pieces were removed and the attached cells were used.
(§1) A series of in vitro experiments using HMSC was conducted. The cells were exposed to a panel of treatments which cause either chondrogenic (e.g., IGF-1) or osteogenic and angiogenic (e.g., IL1 and FGF-2) responses. Two rounds of in vitro experiments were performed. Initially, a calibration experiment was carried out in order to determine the time/dose kinetics of the cellular response to the stimuli. Based on this study, a large-scale experiment was performed from which RNA was prepared and used in the course of the gene expression profiling experiments.
In order to validate the differentiation response of the HMSC to the various stimuli, cells exposed to different treatments (Table 1) were tested for the expression of markers specific for osteoblastic and chondroblastic lineages by immunohistochemistry and staining procedures. To optimize the response of HMSC to differentiation treatment, it was studied on cells grown at varying density (sparse and confluent).

[9] = test system: spermidine synthase; experiment: Gene expression profiling of treated HMSC by cDNA microarray hybridization; assay type: cell-based, human; conditions: HMSC treated with FGF-2
Experimental: as §1
cDNA probes were synthesized from 1 μg of polyA RNA derived from every sample using reverse transcriptase (Superscript, Gibco-BRL) and 18-mer oligo-dT primer. Cy3-dCTP (Amersham) or Cy5-dCTP (Amersham) were incorporated during the RT reaction, to label the cDNA. Hybridization, subsequent scanning, and visualization were performed as previously described (Schena, M. et al. (1996) Proc Natl Acad Sci USA 93, 10614-10619). The quality control of hybridizations was performed according to applicant's methods.
Probe 2 in all hybridizations was an identical probe comprised of a pool of 0 time point RNA extractions (Table 4, Common control). This served as a common normalizing probe and allowed us to compare results from different hybridizations in formal statistical analysis. […]

[10] = oral administration for 10 days or 4 months
[11] = rats, prolonged exposure for 10 days

For `C[C@H]1CC[C@H](N)CC1` [4MCHA, trans-4-methylcyclohexylamine], the “spermidine in rat tissue” value [1, 10] is given as “specific and marked decrease”, the “spermine in rat tissue” value [1, 10] is given as “compensatory increase” and the reduction in spermidine ([1]; rats, prolonged exposure for 10 days, variety of tissues) is given as 70-80%. The effect on growth [1, 11] was “no obvious effect”, the spermine [1, 11] was “compensatory increase” and the total polyamine content [1, 11] was “remained constant”.
In the case of `NCCCCC[S+](CCN)CC1OC(n2cnc3c(N)ncnc32)C(O)C1O` (centres unmarked) [AdoDATO, S-adenosyl-1,8-diamino-3-thiooctane], the cellular spermidine content [2] is listed as “drastic decrease”, the putrescine content [2] is listed as “concomitant elevation” and the cell proliferation [3] is listed as “significant decrease”.
For `C1CCC(NC2CCCCC2)CC1` [DCHA], the “levels of all three polyamines on continued treatment” value ([4]; continued DCHA treatment) is given as “returned to normal within two weeks”, the brain spermidine ([4]; daily administration) is given as “dose-dependent depletion” and the putrescine and spermine ([4]; daily administration) is given as “rise”.
For `CC(C=NNC(=N)N)=NNC(=N)N` [MGBG, methylglyoxal bis(guanylhydrazone), reference compound], the fusion of macrophages [5] is listed as “concomitant inhibition” and the “enhanced synthesis of proteins induced by 1α,25(OH)2D3” value [5] is listed as “greatly diminished”.
For `NCCCCN` [putrescine, 1,4-diaminobutane], the “effect on displacing proteoglycan subunits from collagen column” value (“effect … from collagen column” for short) [6] is listed as “without effect”.
For `NCCCCNCCCN` [spermidine], the “effect … from collagen column” value [6] is listed as “strong capacity”, the “proteoglycan subunits removed from the column” value [6] is listed as “about 90%” and the “activity of alkaline phosphatase produced from cartilage” value [7] is listed as “increased”. For the same compound, the fusion of macrophages [5] was “restored” and the “enhanced synthesis of proteins induced by 1α,25(OH)2D3” value [5] was “restored”.
For `NCCCNCCCCNCCCN` [spermine], the “effect … from collagen column” value [6] is given as “without effect” and the “activity of alkaline phosphatase produced from cartilage” value [7] is given as “increased”.
With FGF-2: fibroblast growth factor the FGFR3 expression ([8]; confluent HMSC, 6 days) was “increased”, the VEGF expression ([8]; confluent HMSC, 6 days) was “increased” and the “chondrocyte maturation and cartilage matrix production (Alcian Blue staining)” value ([8]; confluent HMSC, 6 days) was “decreased”. The expression of osteocalcin ([8]; confluent HMSC, 6 days) was “increased” and the “expression of spermidine synthase gene” value [9] was “up-regulation”.
In the case of “IGF-1: growth factor that is beneficial for normal cartilage function and rehabilitation”, the FGFR3 expression ([8]; confluent HMSC, 6 days) is reported as “decreased”, the “chondrocyte maturation and cartilage matrix production (Alcian Blue staining)” value ([8]; confluent HMSC, 6 days) is reported as “accelerates” and the “expression of collagen type II” value ([8]; confluent HMSC, 6 days) is reported as “increased”.
For “IL-1β: the inflammatory cytokine, known to be overproduced in OA joints”, the FGFR3 expression ([8]; confluent HMSC, 6 days) was “increased”, the VEGF expression ([8]; confluent HMSC, 6 days) was “increased” and the “chondrocyte maturation and cartilage matrix production (Alcian Blue staining)” value ([8]; confluent HMSC, 6 days) was “decreased”. For the same compound, the expression of osteocalcin ([8]; confluent HMSC, 6 days) was “increased” and the “cytotoxicity to HMSC” value ([8]; high doses) was “cytotoxic”.
